Earlier results in patent US20080112943A1, “Biosynthetic Polypeptide Fusion Inhibitors” (priority 2005, published 2008).

What was measured:
[1] = in vitro studies and in animals
[2] = tested on: monocytes and neutrophils
[3] = target: T1, N-formyl peptide receptor (Homo sapiens, UniProt P21462); conditions: human phagocytes
T1 construct: host or cells: human phagocytes (endogenous receptor)
T1 sequence (P21462 1-350): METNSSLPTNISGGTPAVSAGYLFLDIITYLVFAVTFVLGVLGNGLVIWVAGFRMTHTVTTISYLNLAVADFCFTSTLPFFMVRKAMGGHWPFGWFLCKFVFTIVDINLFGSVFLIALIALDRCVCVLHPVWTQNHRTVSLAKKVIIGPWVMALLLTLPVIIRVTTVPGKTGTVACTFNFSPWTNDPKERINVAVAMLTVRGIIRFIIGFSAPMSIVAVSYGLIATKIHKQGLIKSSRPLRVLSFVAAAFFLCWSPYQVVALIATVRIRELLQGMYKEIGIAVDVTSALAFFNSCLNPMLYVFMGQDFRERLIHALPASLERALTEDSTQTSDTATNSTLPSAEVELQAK

Which results are given for enfuvirtide?
toxicity [1]: non-toxic; inhibition of HIV-1 mediated CD-4+ cell-cell fusion (i.e., syncytial formation) and infection of CD-4+ cells by cell-free virus (HIV-1): potent inhibitor; chemoattractant and activator of monocytes and neutrophils [2]: chemoattractant and activator; activation of the N-formyl peptide receptor [3]: activates
